Data: US8586613B2, “Pyridinium and quinolinium derivatives” (Universidad de Granada, priority 2004, dated 2013)
Like-named read-outs stand apart in the source and are kept apart here.

Key:
HT-29 cells = assay: HT-29 cell proliferation assay (Crystal Violet); type: cell-based, human; conditions: six days of treatment
Experimental: The HT-29 cells were seeded in 24-well plates (35×10^3 cells/well) and were incubated for 24 hours. Then the cells were treated with different concentrations of ChoK inhibitors in the usual culture medium. Three days later, the wells were aspirated and both fresh medium and more amount of drug were added, and the cells were maintained for three more days. The quantification of the remaining cells in each well was carried out by means of the Crystal Violet method [Gillies, R. J., Didier, N., Denton, M. Anal. Biochem. 159, 109-113 (1986)], with some modifications [Hernández-Alcoceba, R., Saniger, L., Campos, J., Núñez, M. C., Khaless, F., Gallo, M. Á., Espinosa, A., Lacal, J. C. Oncogene, 15, 2289-2301 (1997)]. Briefly, the cells were washed with TD buffer and fixed with 1% glutaraldehyde for 15 minutes. After washing again with TD, the cell nuclei were coloured with 0.1% Crystal Violet for at least 30 minutes and washed three times with distilled water. The adsorbed colouring was resuspended in 10% acetic acid and the absorbance at 595 nm was determined in a spectrometer. […] This value determined by iterative curve adjustment. Two values are determined for each point of the curve, the experiment was repeated two or three times and the mean values were estimated. In the few cases in which the two values differed more than 50%, a third experiment was carried out to determine the real value. The IC50 value as a potency measurement is used to relate the biological activity of the compounds with their chemical structure.

Human ChoK = biological target: T1, Human ChoK (Homo sapiens, UniProt P35790); assay: Ex vivo assay of the activity of human ChoK (recombinant choline kinase expressed in E. coli); type: biochemical
T1 construct: made in house; host or cells: E. coli
Experimental: Recombinant choline kinase expressed in E. coli in the buffer assay (100 mM Tris-HCl pH 8.0, 100 mM MgCl2, 10 mM ATP and 200 μM of choline in the presence of methyl[^14C]-choline chloride (50-60 μCi/mmol)) was used for the ex vivo assays. […] The samples were washed with diethyl ether saturated with water and were lyophilized. The hydrophilic choline derivatives were resolved in thin layer chromatography plates according to a described process [Ramírez, A., Penalva, V., Lucas, L., Lacal, J. C.

[1] = recombinant human ChoK, 37° C., 30 minutes

T1 sequence (P35790 whole entry): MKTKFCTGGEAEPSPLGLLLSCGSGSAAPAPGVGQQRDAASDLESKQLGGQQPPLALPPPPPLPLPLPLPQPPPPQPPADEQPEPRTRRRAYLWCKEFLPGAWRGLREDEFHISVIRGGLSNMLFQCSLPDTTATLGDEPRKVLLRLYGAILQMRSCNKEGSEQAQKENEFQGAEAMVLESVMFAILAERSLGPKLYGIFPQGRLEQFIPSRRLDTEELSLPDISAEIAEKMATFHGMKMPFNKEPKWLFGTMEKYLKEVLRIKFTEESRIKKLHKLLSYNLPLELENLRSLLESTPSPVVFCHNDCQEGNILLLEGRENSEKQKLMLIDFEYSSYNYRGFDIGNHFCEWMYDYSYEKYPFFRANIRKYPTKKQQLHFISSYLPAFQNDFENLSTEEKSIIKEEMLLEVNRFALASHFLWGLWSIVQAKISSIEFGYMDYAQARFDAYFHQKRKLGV

Compound	IC50 (HT-29 cells; Homo sapiens, 144 h) [nM]	IC50 (Human ChoK; [1]) [nM]	IC50 (HT-29 cells) [nM]	IC50 (Human ChoK) [nM]
CN(c1ccc(Cl)cc1)c1cc[n+](Cc2ccc(-c3ccc(C[n+]4ccc(N(C)c5ccc(Cl)cc5)c5ccc(Cl)cc54)cc3)cc2)c2cc(Cl)ccc12 [Compound 8, 1,1′-(biphenyl-4,4′-diylmethylene)bis[4-(4-chloro-N-methylanilino)-7-chloroquinolinium]dibromide]	1200	11400	–	–
Clc1ccc2c(N3CCCC3)cc[n+](Cc3ccc(CCc4ccc(C[n+]5ccc(N6CCCC6)c6ccc(Cl)cc65)cc4)cc3)c2c1 [EC5, reference compound]	200	1000	–	–
CN(c1ccccc1)c1cc[n+](Cc2cccc(-c3cccc(C[n+]4ccc(N(C)c5ccccc5)cc4)c3)c2)cc1.[Br-].[Br-] [Compound 2, 1,1′-(biphenyl-3,3′-diylmethylene)bis[4-(N-methylanilino)pyridinium]dibromide]	–	420	2200	–
c1cc(C[n+]2ccc(N3CCCC3)cc2)cc(-c2cccc(C[n+]3ccc(N4CCCC4)cc3)c2)c1 [EC1, reference compound]	–	5800	–	–
CN(C)c1cc[n+](Cc2cccc(-c3cccc(C[n+]4ccc(N(C)C)c5ccc(Cl)cc54)c3)c2)c2cc(Cl)ccc12 [EC3, reference compound]	700	9600	–	–
CN(c1ccc(Cl)cc1)c1cc[n+](Cc2ccc(CCc3ccc(C[n+]4ccc(N(C)c5ccc(Cl)cc5)c5ccccc54)cc3)cc2)c2ccccc12 [Compound 9, 1,1′-[ethylenebis(benzene-1,4-diylmethylene)]bis[4-(4-chloro-N-methylanilino)quinolinium]dibromide]	700	4800	–	–
1,1′-(biphenyl-3,3′-diylmethylene)bis[4-(3,5-dichloro-N-methylanilino)pyridinium]dibromide [Compound 4]	–	–	1800	–
Clc1ccc2c(N3CCCC3)cc[n+](Cc3cccc(-c4cccc(C[n+]5ccc(N6CCCC6)c6ccc(Cl)cc65)c4)c3)c2c1 [EC4, reference compound]	400	1200	–	–
1,1′-(benzene-1,3-diylmethylene)bis[4-(4-chloro-N-methylanilino)pyridinium]dibromide [Compound 1]	–	5700	3300	–
c1cc(C[n+]2ccc(N3CCCCC3)cc2)cc(-c2cccc(C[n+]3ccc(N4CCCCC4)cc3)c2)c1 [EC2, reference compound]	1600	–	–	1900
CN(c1ccc(Cl)cc1)c1cc[n+](Cc2cccc(-c3cccc(C[n+]4ccc(N(C)c5ccc(Cl)cc5)c5ccc(Cl)cc54)c3)c2)c2cc(Cl)ccc12 [Compound 6, 1,1′-(biphenyl-3,3′-diylmethylene)bis[4-(4-chloro-N-methylanilino)-7-chloroquinolinium]dibromide]	1900	5700	–	–
CN(c1ccc(Cl)cc1)c1cc[n+](Cc2cccc(-c3cccc(C[n+]4ccc(N(C)c5ccc(Cl)cc5)c5ccccc54)c3)c2)c2ccccc12.[Br-].[Br-] [Compound 5, 1,1′-(biphenyl-3,3′-diylmethylene)bis[4-(4-chloro-N-methylanilino)quinolinium]dibromide]	–	–	1600	–
CN(C)c1cc[n+](Cc2ccc(CCCc3ccc(C[n+]4ccc(N(C)C)cc4)cc3)cc2)cc1 [EC6, reference compound]	2500	22000	–	–
CN(c1ccc(Cl)cc1)c1cc[n+](Cc2ccc(CCc3ccc(C[n+]4ccc(N(C)c5ccc(Cl)cc5)c5ccc(Cl)cc54)cc3)cc2)c2cc(Cl)ccc12 [Compound 10, 1,1′-[ethylenebis(benzene-1,4-diylmethylene)]bis[4-(4-chloro-N-methylanilino)-7-chloroquinolinium]dibromide]	800	5700	–	–
